# Non-standard residues stand in square brackets, D forms with d. Residues, ends and D or L forms follow the SMILES beside them. *: point of attachment. Octanoyl = CCCCCCCC(=O)*; Aib = CC(C)(N)C(=O)O
# Assays:
# Assay in all cases: MTT cytotoxicity assay, 48 hours (Example 14)
# L132 (Lung) = type: cell-based
# Experimental: (§1) The cytotoxic effect of peptide sequences SEQ ID NO: 9, SEQ ID NO: 10, SEQ ID NO: 11 and SEQ ID NO: 12, were studied by MTT assay which is based on the principle of uptake of MTT[3-[4,5-dimethylthiazol-2-yl]-2,5-diphenyl tetrazolium bromide], a tetrazolium salt by the metabolically active cells where it is metabolized by active mitochondria into a blue colored formazan product which can be read spectrophotometrically. Tumor cells KB (oral squamous). HuTu80 (Stomach), PTC and SW620 (colon), U87MG (Glioblastoma), HBL 100. (Breast), HeP2 (laryngeal) and L132 (Lung) were incubated with the peptide analogs for 48 hours at 37° C. in a 96-well culture plate, followed by the addition of 100 μl MTT and further incubation of 1 hour. The formazon crystals formed inside the cells were dissolved with a detergent comprising 10% Sodium dodecyl sulfate and 0.01 N HCl and optical density read on a multiscan ELISA reader. The optical density was directly proportional to the number of proliferating and metabolically active cells.
# HeP2 (laryngeal) = type: cell-based
# Experimental: as §1
# U87MG (Glioblastoma) = type: cell-based
# Experimental: as §1
# HuTu80 (Stomach) = type: cell-based, human
# Experimental: as §1
# HBL 100 (Breast) = type: cell-based, human
# Experimental: as §1
# SW620 (colon) = type: cell-based, human
# Experimental: as §1
# KB (oral squamous) = type: cell-based, human
# Experimental: as §1
# PTC (colon) = type: cell-based, human
# Experimental: as §1
smiles,measurement,setting,value
"CCCCCCCC(=O)N[C@H](Cc1ccccc1)C(=O)N[C@@H](CCC(N)=O)C(=O)N[C@@H](Cc1c[nH]c2ccccc12)C(=O)N[C@@H](C)C(=O)N[C@H](C(=O)NC(C)(C)C(=O)N[C@@H](Cc1c[nH]cn1)C(=O)N[C@@H](CC(C)C)C(N)=O)C(C)C [SEQ ID: 12, Octanoyl-D-Phe-Gln-Trp-Ala-Val-Aib-His-Leu-NH2] (Octanoyl-[dF]QWAV[Aib]HL-NH2)",Percentage cytotoxicity,"L132 (Lung); L132, 10 pM",0.0 ± 0.0%
same,Percentage cytotoxicity,"L132 (Lung); L132, 100 pM",23.1 ± 0.7%
same,Percentage cytotoxicity,"L132 (Lung); L132, 1 nM",26.7 ± 0.4%
same,Percentage cytotoxicity,"L132 (Lung); L132, 10 nM",26.4 ± 0.3%
same,Percentage cytotoxicity,"L132 (Lung); L132, 100 nM",22.0 ± 0.1%
same,Percentage cytotoxicity,"L132 (Lung); L132, 1 μM",22.2 ± 0.2%
same,Percentage cytotoxicity,"HeP2 (laryngeal); HeP2, 10 pM",10.0 ± 0.0%
same,Percentage cytotoxicity,"HeP2 (laryngeal); HeP2, 100 pM",24.4 ± 0.1%
same,Percentage cytotoxicity,"HeP2 (laryngeal); HeP2, 1 nM",28.9 ± 0.5%
same,Percentage cytotoxicity,"HeP2 (laryngeal); HeP2, 10 nM",29.2 ± 1.1%
same,Percentage cytotoxicity,"HeP2 (laryngeal); HeP2, 100 nM",25.6 ± 0.4%
same,Percentage cytotoxicity,"HeP2 (laryngeal); HeP2, 1 μM",28.7 ± 0.8%
same,Percentage cytotoxicity,U87MG (Glioblastoma); 10 pM,13.1 ± 2.2%
same,Percentage cytotoxicity,U87MG (Glioblastoma); 100 pM,22.1 ± 3.8%
same,Percentage cytotoxicity,U87MG (Glioblastoma); 1 nM,28.3 ± 1.9%
same,Percentage cytotoxicity,U87MG (Glioblastoma); 10 nM,27.5 ± 2.9%
same,Percentage cytotoxicity,U87MG (Glioblastoma); 100 nM,13.1 ± 2.3%
same,Percentage cytotoxicity,U87MG (Glioblastoma); 1 μM,15.4 ± 3.1%
same,Percentage cytotoxicity,"HuTu80 (Stomach); HuTu80, 10 pM",8.3 ± 1.1%
same,Percentage cytotoxicity,"HuTu80 (Stomach); HuTu80, 100 pM",13.0 ± 0.7%
same,Percentage cytotoxicity,"HuTu80 (Stomach); HuTu80, 1 nM",33.1 ± 4.8%
same,Percentage cytotoxicity,"HuTu80 (Stomach); HuTu80, 10 nM",23.4 ± 0.5%
same,Percentage cytotoxicity,"HuTu80 (Stomach); HuTu80, 100 nM",21.8 ± 2.1%
same,Percentage cytotoxicity,"HuTu80 (Stomach); HuTu80, 1 μM",20.0 ± 3.9%
same,Percentage cytotoxicity,"HBL 100 (Breast); HBL100, 10 pM",29.0 ± 3.8%
same,Percentage cytotoxicity,"HBL 100 (Breast); HBL100, 100 pM",34.7 ± 2.8%
same,Percentage cytotoxicity,"HBL 100 (Breast); HBL100, 1 nM",29.6 ± 0.4%
same,Percentage cytotoxicity,"HBL 100 (Breast); HBL100, 10 nM",27.7 ± 1.5%
same,Percentage cytotoxicity,"HBL 100 (Breast); HBL100, 100 nM",23.6 ± 2.7%
same,Percentage cytotoxicity,"HBL 100 (Breast); HBL100, 1 μM",11.8 ± 1.1%
same,Percentage cytotoxicity,"SW620 (colon); SW620, 10 pM",34.8 ± 0.4%
same,Percentage cytotoxicity,"SW620 (colon); SW620, 100 pM",38.4 ± 2.8%
same,Percentage cytotoxicity,"SW620 (colon); SW620, 1 nM",32.2 ± 2.6%
same,Percentage cytotoxicity,"SW620 (colon); SW620, 10 nM",36.1 ± 1.9%
same,Percentage cytotoxicity,"SW620 (colon); SW620, 100 nM",25.3 ± 0.6%
same,Percentage cytotoxicity,"SW620 (colon); SW620, 1 μM",22.6 ± 1.1%
same,Percentage cytotoxicity,KB (oral squamous); 10 pM,19.3 ± 2.9%
same,Percentage cytotoxicity,KB (oral squamous); 100 pM,19.4 ± 2.9%
same,Percentage cytotoxicity,KB (oral squamous); 1 nM,26.6 ± 4.9%
same,Percentage cytotoxicity,KB (oral squamous); 10 nM,18.6 ± 2.1%
same,Percentage cytotoxicity,KB (oral squamous); 100 nM,11.1 ± 3.1%
same,Percentage cytotoxicity,KB (oral squamous); 1 μM,12.4 ± 1.2%
same,Percentage cytotoxicity,PTC (colon); 10 pM,19.5 ± 0.8%
same,Percentage cytotoxicity,PTC (colon); 100 pM,18.6 ± 2.4%
same,Percentage cytotoxicity,PTC (colon); 1 nM,30.1 ± 4.1%
same,Percentage cytotoxicity,PTC (colon); 10 nM,20.7 ± 3.8%
same,Percentage cytotoxicity,PTC (colon); 100 nM,16.1 ± 2.5%
same,Percentage cytotoxicity,PTC (colon); 1 μM,14.4 ± 2.7%

# — US6989371B1, “Bombesin analogs for treatment of cancer” (Dabur Research Foundation, priority 1996, dated 2006)
